Among the data in ChEMBL document CHEMBL5726485, “Polycyclic pyridone derivative having integrase inhibitory activity” (2019) are EC50 values, retold here.

A short description of the assay: Anti-HIV Activity: Previously, a series of two-fold dilution on test samples were carried out in a 96-well plate (50 μL/well). Two plates were made for measuring anti-HIV activity and measuring cytotoxicity. For each agent, measurement in duplicate was carried out. An MT-4 cell suspension of 2.5×10^5/mL was dispensed at 100 μL/well onto the 96-well plate containing the test samples. An HIV virus solution was dispensed at 50 μL/well onto the 96-well plate containing the test samples and the cell. To the plate for measuring cytotoxicity, a culture solution was dispensed at 50 μL/well. It was mixed by a plate mixer, and then incubated in a CO2 incubator for 4 days. […] Thirty microliters of a MTT (3-(4,5-dimethylthiazol-2-yl)-2,5-diphenyltetrazolium bromide) solution was dispensed to each well.A reaction was allowed to occur in a CO2 incubator for an hour. From each well, 150 μL of the supernatant was removed such that cells are not sucked. One-hundred and fifty microliters of a cell lysis solution was added thereto, and then it was mixed well by a plate mixer until the whole cells are lysed. The mixed 96-well plates were measured by a microplate reader at two wavelengths, 560 nm/690 nm. Based on the following calculation formula, 50% HIV inhibition concentration (EC50) was calculated. The following applies: MT4.

As usually defined, the EC50 is the concentration at which the effect is half-maximal. For the molecule `C[C@H]1CCO[C@@H]2Cn3cc(-c4nnc(Cc5ccc(F)cc5F)s4)c(=O)c(O)c3C(=O)N12`, the EC50 is 2.1 nM.

Turning to `O=C1c2c(O)c(=O)c(-c3nnc(Cc4ccc(F)cc4F)s3)cn2C[C@H]2O[C@@H]3CCC[C@@H]3N12`, the half-maximal effective concentration (EC50) is 1.6 nM.

In the case of `COCCN1CN(CC(C)C)n2cc(C(=O)NNC(=S)Cc3ccc(F)cc3F)c(=O)c(O)c2C1=O`, the concentration giving a half-maximal response (EC50) is 3.4 nM.

As to `C[C@H]1CCO[C@@H]2Cn3cc(-c4nnc(Cc5c(F)cc(F)cc5F)s4)c(=O)c(O)c3C(=O)N12`, the EC50 was 1.4 nM.

With `CCN1CN(CCOC)C(=O)c2c(O)c(=O)c(-c3ncc(Cc4cccc(Cl)c4F)s3)cn21`, the concentration giving a half-maximal response (EC50) is 8.7 nM.

Consider `C[C@H]1CCN(C2CC2)[C@@H]2Cn3cc(-c4nnc(Cc5ccc(F)cc5F)s4)c(=O)c(OCc4ccccc4)c3C(=O)N12`, for which the EC50 is 3 nM.

Consider `C[C@@H]1CCC2C(=O)c3c(O)c(=O)c(-c4ncc(Cc5ccc(F)cc5F)s4)cn3C[C@@H]2O1` (stereo partly specified), for which the EC50 was 7.4 nM.

Regarding `C[C@H]1CCO[C@@H]2Cn3cc(-c4nnc(Cc5ccc(F)c(Cl)c5F)s4)c(=O)c(O)c3C(=O)N12`, the EC50 was 2.3 nM.

With `C[C@@H]1C[C@@H](C)N2C(=O)c3c(O)c(=O)c(-c4nnc(Cc5ccc(F)cc5F)s4)cn3C[C@@H]2O1`, the half-maximal effective concentration (EC50) was 2.7 nM.

Regarding `O=C1c2c(O)c(=O)c(-c3ncc(Cc4ccc(F)cc4F)s3)cn2C[C@@H]2CCCCN12`, the EC50 is 11 nM.

As for `C[C@@H]1C[C@@H](C)N2C(=O)c3c(O)c(=O)c(-c4nnc(Cc5cccc(Cl)c5F)s4)cn3C[C@@H]2O1`, the concentration for a half-maximal effect (EC50) is 2.8 nM.
